Test results as given in patent publication US20110311532A1, “INHIBITION OF COMPLEMENT AND CELLULAR ACTIVATION” (priority 2007, published 2011).
Positions of bridges follow the written chain, without caps; N, C: chain ends. Non-standard residues stand in square brackets, D forms with d. Residues, ends and D or L forms follow the SMILES beside them. hArg = N=C(N)NCCCC[C@H](N)C(=O)O; Mpa = O=C(O)CCS

B1: Abciximab (antibody, chains of the INN, looked up, V domains shown)
VH: EVQLQQSGTVLARPGASVKMSCEASGYTFTNYWMHWVKQRPGQGLEWIGAIYPGNSDTSYIQKFKGKAKLTAVTSTTSVYMELSSLTNEDSAVYYCTLYDGYYVFAYWGQGTLVTVSA
VL: EIVLTQSPVTLSVTPGDSVSLSCRASRDISNNLHWFQQTSHESPRLLIKYASQSMSGIPSRFSGSGSGTDFTLSINSVETEDFGMYFCQQTNSWPYTFGGGTKLEIK
modifications: Fab
notes: monoclonal F(ab) fragment GPIIb/IIIa antagonist

Tests used:
[1] = system: monocytes; experiment: Tubing loop model, monocyte activation by flow cytometry (CD14/CD11b); format: cell-based, human; conditions: anti-platelet agent in combination with NM4047
Procedure: (§1) In the following examples, heparinized whole blood from a donor volunteer was circulated in a PVC tubing at 37° C. to allow complement and cellular activation. It is known that alternative complement pathway is activated when blood comes in contact with the artificial surface of the PVC tubing. As a result, complement is activated to release inflammatory molecules. These inflammatory molecules activate neutrophils, monocytes and platelets. The monoclonal antibody NM4047, inhibits complement activation in vitro in human serum. NM4047 inhibits C3a, C5a, and C5b-9 in whole blood in the tubing loop model. […] We attributed these findings to the Fc region on the IgG1. Removal of Fc domain with Ficin generated an F(ab′)2 molecule which inhibited C3a, C5a, C5b-9.
(§2) NM4047 is an IgG1 monoclonal antibody that was identified as a blocker of alternative complement pathway activation. The monoclonal antibody was evaluated for inhibition of complement and cellular activation in a whole blood based extracorporeal circulation model. In this model, whole heparinzed human blood was diluted with plasmalyte and circulated in a PVC tubing loop for 2 h at 37° C. to allow complement activation to occur. A total of 21 tubing loops were prepared. […] Nine tubing loops received 400 μg/ml concentration of NM4047 and the other nine received 100 μg/ml concentration of NM4047. Tubing loops were then rotated for 2 h at 37° C. Following the rotation, aliquots of the blood were stained for flow cytometry for the evaluation of cellular activation. A separate aliquot of blood was centrifuged to separate plasma, which was used for measuring complement activation products in ELISA. […] Cellular activation was evaluated using flow cytometry methods. […] Cell populations were read in the BD-LSR 1 and Cell Quest software. The raw data taken from Cell Quest were analyzed using Win List software from Verity, populations were measured using Ln Median shifts in the activation marker in the case of neutrophils and monocytes, and population percentage shifts for platelets. […]

[2] = system: neutrophils; experiment: Tubing loop model, neutrophil activation by flow cytometry (CD15/CD11b); format: cell-based, human; conditions: anti-platelet agent in combination with NM4047
Procedure: as §1, §2

[3] = system: platelets; experiment: Tubing loop model, platelet activation by flow cytometry (CD61/CD62P); format: cell-based, human; conditions: for effect on Fc mediated platelet activation (CD62P): anti-platelet agent at various concentrations with 400 μg/ml NM4047
Procedure: as §1
NM4047 is an IgG1 monoclonal antibody that was identified as a blocker of alternative complement pathway activation. The monoclonal antibody was evaluated for inhibition of complement and cellular activation in a whole blood based extracorporeal circulation model. In this model, whole heparinzed human blood was diluted with plasmalyte and circulated in a PVC tubing loop for 2 h at 37° C. to allow complement activation to occur. A total of 21 tubing loops were prepared. […] Nine tubing loops received 400 μg/ml concentration of NM4047 and the other nine received 100 μg/ml concentration of NM4047. Tubing loops were then rotated for 2 h at 37° C. Following the rotation, aliquots of the blood were stained for flow cytometry for the evaluation of cellular activation. A separate aliquot of blood was centrifuged to separate plasma, which was used for measuring complement activation products in ELISA. […] However, activation of neutrophils, monocytes, and platelets was not inhibited. Cellular activation was evaluated using flow cytometry methods. Aliquots of blood sample were stained with FITC labeled CD15 for neutrophils, FITC labeled CD14 for monocytes, and FITC labeled CD61 for Platelets. The cells were also stained with activation markers PE labeled CD11b for neutrophils and monocytes, and PE labeled CD62P for platelets. The staining was done in three groups, one group containing CD15/CD11b, second group contained CD14/CD11b, and the third group contained CD61/CD62P antibodies. Following staining, the cells were lysed with lysis buffer, centrifuged to pellet the cells. After a quick wash with 1% BSA/PBS, the cells were suspended in 1% paraformaldehyde buffer. Cell populations were read in the BD-LSR 1 and Cell Quest software. The raw data taken from Cell Quest were analyzed using Win List software from Verity, populations were measured using Ln Median shifts in the activation marker in the case of neutrophils and monocytes, and population percentage shifts for platelets. The data was then plotted on MicroCal Origin software. […] The lack of cellular inhibition could only be explained by the fact that the IgG1 had the Fc region. To determine if the predicted Fc is the cause of the observed cellular activation, IgG1 was digested with Ficin protease.
NM4047 (IgG1) monoclonal antibody was evaluated for inhibition of complement and cellular activation in a whole blood based extracorporeal circulation model in the presence of ReoPro. ReoPro is a GPIIbIIIa monoclonal antibody that binds resting and activated platelets. In this experiment, heparinzed human blood was diluted with plasmalyte and circulated in a PVC tubing loop for 2 h at 37° C. to allow complement activation to occur. A total of 21 tubing loops were prepared. […] Nine tubing loops received 400 μg/ml concentration of NM4047 and the other nine received 100 μg/ml concentration of NM4047. All samples other than controls received 10 μg/ml of ReoPro (clinical material). All tubing loops were then rotated for 2 h at 37° C. Following the rotation, aliquots of the blood were stained for flow cytometry for the evaluation of cellular activation. […]

[4] = system: erythrocytes; experiment: Hemolysis of erythrocytes in tubing loop experiments; format: cell-based, human; conditions: high concentration doses; tested at 5-50 μg/ml
Source text: In this example, we evaluated the effects of Aspirin a commonly used inhibitor of platelet activation. Aspirin is also used as a standard of care for cardiac procedures. […] The tubing loop experiments presented in various examples above remained the same. The only difference was in the type of test agent used across these experiments. While good results were noticed with ReoPro and Aggrastat, the cost of such drugs may be prohibitive. In such cases, aspirin may become a viable option.

[5] = system: complement activation; experiment: Tubing loop model, overall complement activation or inhibition; format: biochemical, human; conditions: anti-platelet agent in combination with NM4047
Procedure: as §2, with “activation.” for “activation. A separate aliquot of blood was centrifuged to separate plasma, which was used for measuring complement activation products in ELISA.”
NM4047 (IgG1) monoclonal antibody was evaluated for inhibition of complement and cellular activation in a whole blood based extracorporeal circulation model in the presence of ReoPro. […] Cellular activation was evaluated using flow cytometry methods. […]

Molecule	effect on monocyte activation [1]	effect on neutrophil activation [2]	effect on Fc mediated platelet activation (CD62P) [3]	concentration achieving complete inhibition of platelet activation ([3]; with 400 μg/ml NM4047, 1 to 20 μg/ml tested)	hemolysis of erythrocytes [4]	effect on level of complement inhibition by NM4047 [5]	total platelet activation ([3]; Integrillin 100 μg/ml with 400 μg/ml NM4047)	inhibition of platelet activation ([3]; ReoPro 10 μg/ml with NM4047 400 or 100 μg/ml)	platelet activation in samples containing IgG2 antibody ([3]; ReoPro together with IgG2 antibody)	concentration at which effect on platelet inhibition starts to vanish ([3]; with 400 μg/ml NM4047)
CCCCS(=O)(=O)N[C@@H](Cc1ccc(OCCCCC2CCNCC2)cc1)C(=O)O [Aggrastat, Tirofiban]	no effect	no effect	highly potent	1 µg/mL	–	–	–	–	–	–
CC(=O)Oc1ccccc1C(=O)O [Aspirin]	only partial effect	only partial effect	inhibits	–	caused hemolysis	did not alter	–	–	–	–
N=C(N)NCCCC[C@@H]1NC(=O)CCSSC[C@@H](C(N)=O)NC(=O)[C@@H]2CCCN2C(=O)[C@H](Cc2c[nH]c3ccccc23)NC(=O)[C@H](CC(=O)O)NC(=O)CNC1=O [Integrillin, Eptifibatide] ([Mpa][hArg]GDWPC-NH2; disulfide 1-7)	–	–	does not inhibit	–	–	–	at least 4 fold	–	–	–
B1	does not inhibit	does not inhibit	dose dependent	–	–	did not affect	–	~100%	inhibited	0.5 µg/mL
